Measurements reported in ChEMBL document CHEMBL1127883, “Increased antiviral activity of HIV protease inhibitors of the difluorostatone type bearing (R)-valinol derivatives as novel c-termini” (Bioorg Med Chem Lett, 1994).

Legend:
[1] = molecular target: T1, Human immunodeficiency virus type 1 protease (Human immunodeficiency virus 1, UniProt Q72874); assay: Inhibitory activity was determined against HIV-1 protease.
[2] = molecular target: Human immunodeficiency virus type 1 protease (Human immunodeficiency virus 1) (UniProt Q72874); assay: Concentration that inhibits cellular growth of MT-4 cells acutely infected with HIV-1 RFstrain by 50%; format: functional, cell-based; details: MT4
[3] = Cytotoxic activity was determined against HIV-1 infected MT-4 cells.; format: functional, cell-based; details: MT4
C8166 [4] = assay: Antiviral activity against HIV-2red in C8166 cell line; format: functional; details: Homo sapiens, read-out: ED50 (the source's name)
C8166 [5] = assay: Antiviral activity against SIV-mac251 in C8166 cell line; format: functional; details: Homo sapiens, read-out: ED50 (the source's name)
C8166 [6] = assay: Cytotoxic activity against HIV-1 RF in […] cell line; format: functional; details: Homo sapiens, read-out: CD50 (the source's name)
C8166 [7] = assay: Antiviral activity against HIV-1 RF in […] cell line; format: functional; details: Homo sapiens, read-out: ED50 (the source's name)
CCRF-CEM = assay: Antiviral activity against HIV-1 HIB in CEM cell line; format: functional; details: Homo sapiens, read-out: ED50 (the source's name)
H9 [8] = assay: Antiviral activity against HIV-1HIB in H9 cell line; format: functional; details: Homo sapiens, read-out: ED50 (the source's name)
H9 [9] = assay: Antiviral activity against HIV-1MN in H9 cell line; format: functional; details: Homo sapiens, read-out: ED50 (the source's name)
H938 cell line = assay: Antiviral activity against HIV-1CCl protease in H938 cell line; format: functional; details: Homo sapiens, read-out: ED50 (the source's name)
[10] = molecular target: T1, Human immunodeficiency virus type 1 protease; assay: Inhibitory activity against HIV-1 protease
JM1 [11] = assay: Antiviral activity against HIV-1 QB8F in JM cell line; format: functional; details: Homo sapiens, read-out: ED50 (the source's name)
MT4 [12] = assay: Antiviral activity against HIV-1 RF in MT-4 cell line; format: functional; details: Homo sapiens, read-out: ED50 (the source's name)
MT4 [13] = assay: Cytotoxic activity against HIV-1 in MT-4 cell line; format: functional; details: Homo sapiens, read-out: CD50 (the source's name)
[14] = tested on: Human immunodeficiency virus 1; assay: Antiviral activity against HIV-1 108/F in PBMC 3 cell line; format: functional; details: Human immunodeficiency virus 1, PBMC; read-out: ED50 (the source's name)
[15] = tested on: Human immunodeficiency virus 1; assay: Antiviral activity against HIV-1CC in PBMC cell line; Out of 7 days; format: functional; details: Human immunodeficiency virus 1, PBMC, 168 h; read-out: ED50 (the source's name)
[16] = tested on: Human immunodeficiency virus 1; assay: Antiviral activity against HIV-1CCl in PBMC cell line; Out of 21 days; format: functional; details: Human immunodeficiency virus 1, PBMC, 504 h; read-out: ED50 (the source's name)
[17] = tested on: Human immunodeficiency virus 1; assay: Antiviral activity against HIV-1CCL in PBMC 2 cell line; Out of 14 days; format: functional; details: Human immunodeficiency virus 1, PBMC, 336 h; read-out: ED50 (the source's name)
H9 [18] = assay: Antiviral activity against HIV-1U455 in H9 cell line; format: functional; details: Homo sapiens, read-out: ED50 (the source's name)
JM1 [19] = assay: Cytotoxic activity against HIV-1QB8F in JM cell line; format: functional; details: Homo sapiens, read-out: CD50 (the source's name)

| SMILES | IC50 [1] | ED50 [2] | CD50 [3] | other results |
| --- | --- | --- | --- | --- |
| CC(C)[C@H](NC(=O)OCc1ccccc1)C(=O)NC(Cc1ccc(OCc2ccccc2)cc1)C(=O)C(F)(F)C(=O)N[C@H](COCc1ccccc1)C(C)C (stereo not given in full) | 40 nM | 350 nM | 35 µM |  |
| CC(C)[C@H](COCc1ccccc1)NC(=O)C(F)(F)C(=O)C(Cc1ccc(OCc2ccccc2)cc1)NC(=O)[C@@H](NC(=O)OCc1ccccc1)C(C)C (stereo not given in full) |  | 27 nM | 100 µM | EC50 (C8166 [4]): 33 nM; EC50 (C8166 [5]): 28 nM; CC50 (C8166 [6]): 25000 nM; EC50 (C8166 [7]): 9 nM; EC50 (CCRF-CEM): 30 nM; EC50 (H9 [8]): 9 nM; EC50 (H9 [9]): 12 nM; EC50 (H938 cell line): 49 nM; Ki [10]: 8 nM; EC50 (JM1 [11]): 16 nM; EC50 (MT4 [12]): 27 nM; CC50 (MT4 [13]): 25000 nM; EC50 [14]: 35 nM; EC50 [15]: 80 nM; EC50 [16]: 70 nM; EC50 [17]: 38 nM; EC50 (H9 [18]): 35 nM; CC50 (JM1 [19]): > 100000 nM |
| CC(C)[C@H](NC(=O)OCc1ccccc1)C(=O)NC(Cc1ccc(OCc2ccccc2)cc1)C(=O)C(F)(F)C(=O)N[C@@H](C(=O)O)C(C)C (stereo not given in full) | 4 nM | 50000 nM | > 100 µM |  |
| CC(C)[C@H](CCc1ccccc1)NC(=O)C(F)(F)C(=O)C(Cc1ccc(OCc2ccccc2)cc1)NC(=O)[C@@H](NC(=O)OCc1ccccc1)C(C)C (stereo not given in full) | 13 nM | 240 nM | 35 µM |  |
| COC(=O)[C@H](NC(=O)C(F)(F)C(=O)C(Cc1ccc(OCc2ccccc2)cc1)NC(=O)[C@@H](NC(=O)OCc1ccccc1)C(C)C)C(C)C (stereo not given in full) | < 10 nM | 22 nM | 2.6 µM |  |
| CC(C)(C)NC(=O)[C@@H]1C[C@@H]2CCCC[C@@H]2CN1C[C@@H](O)[C@H](Cc1ccccc1)NC(=O)[C@H](CC(N)=O)NC(=O)c1ccc2ccccc2n1 |  | 6 nM | > 10 µM |  |
| CC(C)C(C=O)NC(=O)C(F)(F)C(=O)C(Cc1ccc(OCc2ccccc2)cc1)NC(=O)[C@@H](NC(=O)OCc1ccccc1)C(C)C (stereo not given in full) | 4 nM | 18 nM | 3.2 µM |  |
| CC(C)[C@H](NC(=O)OCc1ccccc1)C(=O)NC(Cc1ccc(OCc2ccccc2)cc1)C(=O)C(F)(F)C(=O)N[C@@H](C(=O)OC(C)(C)C)C(C)C (stereo not given in full) | 6 nM | 240 nM | 6 µM |  |
| CC(C)[C@H](NC(=O)OCc1ccccc1)C(=O)NC(Cc1ccc(OCc2ccccc2)cc1)C(=O)C(F)(F)C(=O)NCc1ccccc1 (stereo not given in full) |  | 300 nM | > 100 µM |  |
| CC(C)C[C@H](COCc1ccccc1)NC(=O)C(F)(F)C(=O)C(Cc1ccc(OCc2ccccc2)cc1)NC(=O)[C@@H](NC(=O)OCc1ccccc1)C(C)C (stereo not given in full) | 1.8 nM | 200 nM | 15 µM |  |
| CC(C)CNC(=O)C(F)(F)C(=O)C(Cc1ccc(OCc2ccccc2)cc1)NC(=O)[C@@H](NC(=O)OCc1ccccc1)C(C)C (stereo not given in full) | 5 nM | > 44000 nM | 44 µM |  |
| CC(C)[C@@H](COCc1ccccc1)NC(=O)C(F)(F)C(=O)C(Cc1ccc(OCc2ccccc2)cc1)NC(=O)[C@H](NC(=O)OCc1ccccc1)C(C)C (stereo not given in full) | 2000 nM |  |  |  |
| CC(C)[C@H](COCc1ccccc1)NC(=O)C(F)(F)C(=O)C(Cc1ccc(OCc2ccccc2)cc1)NC(=O)[C@H](NC(=O)OCc1ccccc1)C(C)C (stereo not given in full) | 60 nM | > 95000 nM | 95 µM |  |
| COCCOCCO[C@H](NC(=O)C(F)(F)C(=O)C(Cc1ccc(OCc2ccccc2)cc1)NC(=O)[C@@H](NC(=O)OCc1ccccc1)C(C)C)C(C)C (stereo not given in full) | < 15 nM | 45 nM | 2.8 µM |  |
| CO[C@H](NC(=O)C(F)(F)C(=O)C(Cc1ccc(OCc2ccccc2)cc1)NC(=O)[C@@H](NC(=O)OCc1ccccc1)C(C)C)C(C)C (stereo not given in full) | < 10 nM | < 10 nM | 8 µM |  |
| COCCOCO[C@H](NC(=O)C(F)(F)C(=O)C(Cc1ccc(OCc2ccccc2)cc1)NC(=O)[C@@H](NC(=O)OCc1ccccc1)C(C)C)C(C)C (stereo not given in full) | < 10 nM | 15 nM | 3.4 µM |  |
| Cc1cn([C@H]2C[C@H](N=[N+]=[N-])[C@@H](CO)O2)c(=O)[nH]c1=O |  | 60 nM | > 10 µM |  |
| CC(C)[C@H](COCc1ccccc1)NC(=O)C(F)(F)[C@@H](O)C(Cc1ccc(OCc2ccccc2)cc1)NC(=O)[C@@H](NC(=O)OCc1ccccc1)C(C)C (stereo not given in full) | 6.6 nM | > 100000 nM | > 100 µM |  |
| CC(C)[C@H](COCc1ccccc1)NC(=O)C(F)(F)[C@H](O)C(Cc1ccc(OCc2ccccc2)cc1)NC(=O)[C@@H](NC(=O)OCc1ccccc1)C(C)C (stereo not given in full) | 5 nM | > 100000 nM | > 100 µM |  |
| CC(C)[C@H](NC(=O)OCc1ccccc1)C(=O)NC(Cc1ccc(OCc2ccccc2)cc1)C(=O)C(F)(F)C(=O)N[C@@H](COCc1ccccc1)c1ccccc1 (stereo not given in full) | 1 nM | 90 nM | 23 µM |  |
| CC(C)NC(=O)C(F)(F)C(=O)C(Cc1ccc(OCc2ccccc2)cc1)NC(=O)[C@@H](NC(=O)OCc1ccccc1)C(C)C (stereo not given in full) | 5 nM | 320 nM | 6 µM |  |
